In patent US6544541B1, “Devices and compounds for treating arterial restenosis” (Cardiovascular Solutions, Inc., priority 1999, dated 2003):

Columns and labels:
cell growth = details: cited from earlier work
[1] = test system: Friend erythroleukemia cells; test: Friend cell differentiation; assay type: cell-based
Text: It is of note however that MIBG acts at a point in the differentiation pathway that is distinct from 3-aminobenzamide.

H4IIE cells = test: lactate dehydrogenase (LDH) release toxicity assay; assay type: cell-based; details: 96 hours; FIG. 5
Description: To address the issue of MIBG toxicity, lactate dehydrogenase (LDH) release was measured after incubation with MIBG or MIBA. Quiescent H4IIE cells were prepared in 96-well dishes and treated with various concentrations of either MIBG or MIBA for 96 hours. To quantify the release of LDH from the cells, which only occurs if the cells are damaged or killed by the treatment, 100 μl of culture medium was transferred to a fresh dish. To this was added 100 μl of dye/catalyst mixture (Boehringer Mannheim cytotoxicity detection kitTM), and the samples were subsequently incubated for 30 minutes at 37° C. Absorbance of the solution was monitored at 490 nm. The colour intensity indicates the relative LDH content in the test samples. […] As a consequence, it is speculated that changes in LDH release may be coupled to non-toxic and reversible alterations in mitochondrial metabolism or membrane integrity as a result of MIBG treatment.

H4IIE hepatoma cells [2] = test: DNA synthesis (3H-thymidine incorporation) in H4IIE cells; assay type: cell-based; details: H4IIE cells
Description: Incorporation of uridine or thymidine was used to define the change in rate of […] synthesis, respectively, in response to a mitogen such as insulin. Specifically, quiescent H4IIE cells were prepared by placing the cultures (in 24-well dishes) into serum-free a-minimal essential medium for 3 days. It is of note that the normal growth media for H4IIE cells is α-MEM containing 10% fetal bovine serum (FBS). After reaching quiescence, the cells were stimulated with 1 μM insulin and incubated for either 6 hours or 24 hours in the presence of 1 μCi/ml ^3H-uridine or ^3H-thymidine, respectively. Cells were subsequently lysed with detergent and the nucleic acids precipitated with 5% trichloroacetic acid. The precipitated material was collected on glass fibre filters and the radioactive content measured by scintillation counting. […] Furthermore, while complete inhibition of DNA synthesis by MIBG is obtained at approximately 20 μM, higher concentrations decrease basal DNA synthesis below control levels.

H4IIE hepatoma cells [3] = test: flow cytometry, bromodeoxyuridine incorporation in proliferating cells; assay type: cell-based; details: 25 μM MIBG, 48 hours; FIG. 4
Description: Additional verification that MIBG blocked cell proliferation was obtained using flow cytometry analysis. Proliferating H4IIE cells (<40% confluent) were incubated for 48 hours in the presence or absence (untreated control or containing MIBA) of 25 μM MIBG. The cells were pulse labeled with bromodeoxyuridine (BrdU) 2 hours before harvest to label replicating DNA. Cells were released by trypsinization, collected by centrifugation and permeabilized with Triton X-100 (1%). Replicated DNA was labeled with an anti-BrdU antibody conjugated to FITC (fluorescein isothiocyanate), while total DNA was labeled with propidium iodide. The FITC and propidium iodide labels were detected at 514 nm and 600 nm, respectively, with a Coulter flow cytometer™ (excitation wavelength 488 nm), and number of cells containing these fluors were quantified. The data were plotted as cells with propidium iodide versus cells with BrdU. […] To summarize, the results described above indicate that MIBG is a potent inhibitor of cell proliferation. Furthermore, the cellular process affected by MIBG is active throughout the cell cycle. This conclusion is based on the fact that there is no accumulation of cells at a specific phase of the cell cycle. In addition, it is of note that there is no apparent decrease in cell number or an increase in smaller cells, both characteristics of cell death.

[4] = test system: porcine coronary artery smooth muscle cells
[5] = test system: smooth muscle cells derived from human arterial conduits; test: DNA synthesis and cytotoxicity in human smooth muscle cells; details: human cells; FIG. 26B
porcine femoral artery = test: balloon angioplasty of the porcine femoral artery in vivo; design: species or system pigs; details: in vivo femoral angioplasty, relative to MIBG; FIG. 25
Text: To test the effectiveness of MIBG under in vivo conditions, this compound was applied to the femoral artery after balloon angioplasty. This model provided a means of testing both MIBG and the method of application. Specifically, male castrated farm pigs (25-30 kg) were anaesthetized and maintained on isoflurane throughout the procedure. With the pig in a supine position, the left femoral artery was exposed from the bifurcation of the femoral and superficial femoral arteries to the point of insertion of the femoral artery into the groin. A mixture of nitroglycerin and papaverine was applied to the vessel and the area was covered with a saline-soaked sponge to keep the tissues moist. The right femoral artery was also exposed, treated and covered with a sponge. The left femoral was then clamped at both groin insertion (proximal) and bifurcation (distal) points, and an arteriotomy made at the bifurcation. The balloon (6.0×20 mm) was inserted through the arteriotomy in a retrograde manner (i.e. toward the groin) to a position 20 mm from the arteriotomy and the proximal clamp removed. The balloon was inflated for 1 minute, deflated and carefully removed, and the arteriotomy was closed with 6.0 ProleneTM suture. MIBG in combination with a biocompatible glue, in this example, Tisseel®, was applied to the surface of the vessel extending from the arteriotomy to the proximal region past the site of balloon inflation. The fibrin glue ensured that MIBG slowly diffused into the vessel. Furthermore, the fibrin glue helps to retain MIBG at the site for several days. The right femoral was handled as described above. […] The extent of restenosis was subsequently monitored by morphometry. […] Digital images were captured with a DAGE-MTI CCD camera and analyzed with SigmaScan Software. The neointimal and medial areas are quantified and used to calculate the neointimal index: neointimal area/medial area. […] Even though the vehicle cannot be detected after 14 days, we conclude that it remains for the minimum period necessary.

smooth muscle cells = test: Boyden chamber smooth muscle cell migration in response to Angiotensin II; assay type: cell-based; details: 20 μM; 10 μM Angiotensin II in lower compartment; FIG. 17
Description: Specifically, smooth muscle cells were seeded into the upper chamber of a Boyden chamber, which consists of two compartments that are separated by a permeable membrane. […] Specifically, migration to the lower compartment was determined by counting cells on the underside of the membrane. Data are presented as means ± standard error for six independent determinations.

[6] = human studies; cited from earlier work
[7] = test system: porcine coronary arteries; test: coronary artery organ culture after balloon angioplasty (neointimal index); details: organ culture, relative to MIBG; FIG. 24
Text: Although smooth muscle cell cultures can be used to determine the ability of a compound to inhibit proliferation, these cells are not good indicators of a compound's ability to prevent restenosis. This statement stems from the fact that several processes, including cell migration, proliferation and synthesis of ECM degrading enzymes, must be coordinately activated in order for restenosis to occur. A novel organ culture system has therefore been developed in order to test the effectiveness of MIBG and other compounds at preventing restenosis (Wilson et al, 1999, Cardiac Res 42: 761-772). In brief, hearts are transported from the abattoir to the laboratory on ice. The left descending coronary artery is exposed and a balloon catheter is inserted past the first bifurcation. The balloon is inflated, and after 1 minute is deflated and withdrawn. The damaged region (approximately 20 mm in length) is excised, cut into 4 pieces of 5 mm and each piece is placed into an individual well of a culture dish. These segments can be maintained in media containing 20% serum for up to 21 days. Upon harvest of the tissue, typically after 14 days, the vessel segments are placed into resin for histological analysis. Sections are prepared from vessel segments after removal of the first 1.5 mm. […] This file is imported into SigmaScan™, and staining in the areas of the intimal and medial layers quantified. […]

## NC(=O)c1cccc(N)c1 [3-aminobenzamide]
Cell growth
  concentrations at which cell growth is inhibited: ≥ 1 mM
[1]
  effect on Friend cell differentiation: inhibits the commitment phase

## NCc1cccc(I)c1 [MIBA, meta-iodobenzylamine]
H4IIE cells
  concentration at which increased LDH release is detectable: ≥ 200 µM
H4IIE hepatoma cells [2]
  inhibition of DNA synthesis (thymidine incorporation): does not inhibit DNA synthesis
H4IIE hepatoma cells [3]
  bromodeoxyuridine incorporation (DNA synthesis): identical to those observed in the control cells

## N=C(N)NCCCCN [agmatine]
[4]
  inhibition of DNA synthesis in response to serum treatment: does not inhibit DNA synthesis

## CC(C=NNC(=N)N)=NNC(=N)N [methylGAG, methylglyoxal bis-(guanylhydrazone)]
[4]
  inhibition of thymidine incorporation, potency relative to MIBG: slightly more potent inhibitor than MIBG
  toxicity relative to MIBG: less toxicity
[4]; smooth muscle cells, relative to MIBG
  effectiveness in preventing cell growth: as effective as MIBG
[5]
  toxicity relative to MIBG: less toxicity
H4IIE hepatoma cells [2]; relative to MIBG
  effectiveness in preventing cell growth: as effective as MIBG
Porcine femoral artery
  effectiveness in preventing neointimal formation: as effective as MIBG
Smooth muscle cells
  smooth muscle cell migration: inhibited smooth muscle cell migration
[6]
  threshold of tolerance relative to MIBG: higher threshold of tolerance
[7]
  effectiveness in preventing neointimal formation: as effective as MIBG

## benzylguanidine [BG]
[4]
  inhibition of thymidine incorporation: did not inhibit thymidine incorporation
H4IIE hepatoma cells [2]
  inhibition of DNA synthesis (thymidine incorporation): did not inhibit thymidine incorporation
